Legend:
rat mGlu2 receptor = target: T1, rat mGlu2 receptor (Rattus norvegicus, UniProt P31421); assay: [3H]-LY354740 binding on mGlu2 transfected CHO cell membranes; settings: 10 nM [3H]-LY354740, membranes of CHO cells transfected with rat mGlu2, room temperature, 1 hour
T1 construct: expressed in transfected cells; membranes prepared
From the text: [^3H]-LY354740 Binding on mGlu2 Transfected CHO Cell Membranes. Transfection and Cell Culture
cDNA encoding the rat mGlu2 receptor protein in pBluescript II was subcloned into the eukaryotic expression vector pcDNA I-amp from Invitrogen Ltd (Paisley, UK). This vector construct (pcD1mGR2) was co-transfected with a psvNeo plasmid encoding the gene for neomycin resistance, into CHO cells by a modified calcium phosphate method described by Chen & Okayama (1988). The cells were maintained in Dulbecco's Modified Eagle medium with reduced L-glutamine (2 mM final concentration) and 10% dialysed foetal calf serum from Gibco-Invitrogen (Carlsbad, Calif., USA). Selection was made in the presence of G-418 (1000 ug/ml final) and […]. Clones were identified by reverse transcription of 5 μg total RNA, followed by PCR mGlu2 receptor specific primers 5′-[…]-3′ and 5′-[…]-3′in 60 mM Tris HCl (pH 10), 15 mM (NH4)2SO4, 2 mM MgCl2, 25 units/ml Taq Polymerase with 30 cycles annealing at 60° C. for 1 min., extention at 72° C. for 30 s, and 1 min. 95° C. denaturation.
Cells, cultured as above, were harvested and washed three times with cold PBS and frozen at −80° C. The pellet was resuspended in cold 20 mM HEPES-NaOH buffer containing 10 mM EDTA (pH 7.4), and homogenised with a polytron (Kinematica, AG, Littau, Switzerland) for 10 s at 10 000 rpm. After centrifugation for 30 min. at 4° C., the pellet was washed once with the same buffer, and once with cold 20 mM HEPES-NaOH buffer containing 0.1 mM EDTA, (pH 7.4). Protein content was measured using the micro BCA method from Pierce-Perbio (Rockford, Ill., USA) using bovine serum albumin as standard.
After thawing, the membranes were resuspended in cold 50 mM Tris-HCl buffer containing 2 mM MgCl2 (pH 7) (binding buffer). The final concentration of the membranes in the assays was 25 μg protein/ml. Inhibition experiments were performed with membranes incubated with 10 nM [^3H]-LY354740 at room temperature, for 1 hour, in presence of various concentrations of the compound to be tested. Following the incubations, membranes were filtered onto Whatmann GF/B glass fiber filters and washed 5 times with cold binding buffer. Non specific binding was measured in the presence of 10 μM DCG IV. After transfer of the filters into plastic vials containing 10 ml of Ultima-gold scintillation fluid from Perkin-Elmer(Boston, Mass., USA), the radioactivity was measured by liquid scintillation in a Tri-Carb 2500 TR counter (Packard, Zürich, Switzerland).
The inhibition curves were fitted with a four parameter logistic equation giving IC50 values, and Hill coefficients.

T1 sequence (P31421 19-872): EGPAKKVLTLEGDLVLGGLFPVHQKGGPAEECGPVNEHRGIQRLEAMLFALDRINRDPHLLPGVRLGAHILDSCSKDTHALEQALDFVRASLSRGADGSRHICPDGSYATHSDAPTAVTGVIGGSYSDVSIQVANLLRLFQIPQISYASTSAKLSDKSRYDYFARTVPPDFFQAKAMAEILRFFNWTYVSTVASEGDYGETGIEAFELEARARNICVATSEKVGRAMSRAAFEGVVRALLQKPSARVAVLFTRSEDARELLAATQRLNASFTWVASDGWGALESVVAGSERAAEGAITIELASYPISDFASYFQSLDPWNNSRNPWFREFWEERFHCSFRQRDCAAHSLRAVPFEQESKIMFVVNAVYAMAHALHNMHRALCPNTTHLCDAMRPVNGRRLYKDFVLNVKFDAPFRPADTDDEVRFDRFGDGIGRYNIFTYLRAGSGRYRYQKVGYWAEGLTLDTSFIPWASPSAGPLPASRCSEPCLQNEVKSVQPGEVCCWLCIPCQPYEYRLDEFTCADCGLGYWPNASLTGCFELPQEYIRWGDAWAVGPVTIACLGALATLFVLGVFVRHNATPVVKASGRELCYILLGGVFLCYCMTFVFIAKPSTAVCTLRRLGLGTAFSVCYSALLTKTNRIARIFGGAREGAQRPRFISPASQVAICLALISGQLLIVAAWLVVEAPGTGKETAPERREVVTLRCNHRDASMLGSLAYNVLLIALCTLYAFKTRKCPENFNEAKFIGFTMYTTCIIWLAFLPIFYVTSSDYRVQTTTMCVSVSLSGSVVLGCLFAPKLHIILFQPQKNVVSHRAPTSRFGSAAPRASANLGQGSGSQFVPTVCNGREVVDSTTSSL

Row | Ki (rat mGlu2 receptor) [nM] | melting point [°C] | SMILES
1 | 2.5 | 303 | Cc1nc(NC(=O)c2cnn3c(C(F)(F)F)cc(-c4ccc(C(F)(F)F)cc4)nc23)sc1S(N)(=O)=O [Example 8, 7-Trifluoromethyl-5-(4-trifluoromethyl-phenyl)-pyrazolo[1,5-a]pyrimidine-3-carboxylic acid (4-methyl-5-sulfamoyl-thiazol-2-yl)-amide]
2 | 27 | 217 | O=C(Nc1cc(S(=O)(=O)N(CCO)CCO)sc1Cl)c1cnn2c(C(F)(F)F)cc(-c3ccc(C(F)(F)F)cc3)nc12 [Example 35, 7-Trifluoromethyl-5-(4-trifluoromethyl-phenyl)-pyrazolo[1,5-a]pyrimidine-3-carboxylic acid {5-[bis-(2-hydroxy-ethyl)-sulfamoyl]-2-chloro-thiophen-3-yl}-amide]
3 | 6.9 | 275 | NS(=O)(=O)c1cc(NC(=O)c2cnn3c(C(F)(F)F)cc(-c4ccc(C(F)(F)F)cc4)nc23)c(Cl)s1 [Example 2, 7-Trifluoromethyl-5-(4-trifluoromethyl-phenyl)-pyrazolo[1,5-a]pyrimidine-3-carboxylic acid (2-chloro-5-sulfamoyl-thiophen-3-yl)-amide]

From patent US7361659B2, “Pyrrazolo-pyrimidine derivatives” (Hoffmann-La Roche Inc., priority 2005, dated 2008)
